The assay concerns the target wild-type human GLP-1R (Homo sapiens, UniProt P43220). Put plainly: GLP-1R Cell Assay 1 (cAMP Hunter CHO-K1 GLP1R Gs cell line, HitHunter cAMP assay). The assay is classed as cell-based. Particulars: agonist activity, cellular cAMP, CHO-K1 overexpressing human GLP-1R; normalized to Exendin-4; Table 3; no stereo designation = tested as mixture of stereoisomers. On the procedure: GLP-1R mediated agonist activity was determined using the cAMP Hunter CHO-K1 GLP1R Gs cell line (DiscoverX, cat #95-0062C2), a stable CHO-K1 derived cell lines overexpressing naturally Gs coupled wild-type human GLP-1R (accession number: NM_002062.3). GLP-1R agonism in this cell line was detected by measuring cellular cAMP levels using the HitHunter cAMP assay kit (cat #90-0075SM2), a homogenous, gain-of-signal competitive immune assay based on Enzyme Fragment Complementation (EFC) technology. In this system cellular cAMP competes with exogenous labeled cAMP (ED-cAMP) for binding to an anti-cAMP antibody. […] The luminescent signal is directly proportional to the amount of cellular cAMP.
For compound testing, cells were seeded in a total volume of 20 μL in white walled, 384-well microplates and incubated at 37° C. prior to compound testing. Prior to compound addition, cell culture media was removed by aspiration and replaced with 15 μL reagent buffer (2:1 HBSS/10 mM HEPES: cAMP XS+Ab reagent). […] Microplates were read on a PerkinElmer Envision instrument. Compound activity was analyzed using CBIS data analysis suite (ChemInnovation). Percent activity was calculated based on duplicate assay runs and normalized to the positive control Exendin-4, a GLP-1R peptide agonist, using the following formula: […]
For orientation: Changes in cAMP serve as a functional read-out for many G protein-coupled receptors.

Molecules are shown by their SMILES.

In general, EC50 refers to the concentration at which the effect is half-maximal.

Chain of wild-type human GLP-1R (P43220 24-463): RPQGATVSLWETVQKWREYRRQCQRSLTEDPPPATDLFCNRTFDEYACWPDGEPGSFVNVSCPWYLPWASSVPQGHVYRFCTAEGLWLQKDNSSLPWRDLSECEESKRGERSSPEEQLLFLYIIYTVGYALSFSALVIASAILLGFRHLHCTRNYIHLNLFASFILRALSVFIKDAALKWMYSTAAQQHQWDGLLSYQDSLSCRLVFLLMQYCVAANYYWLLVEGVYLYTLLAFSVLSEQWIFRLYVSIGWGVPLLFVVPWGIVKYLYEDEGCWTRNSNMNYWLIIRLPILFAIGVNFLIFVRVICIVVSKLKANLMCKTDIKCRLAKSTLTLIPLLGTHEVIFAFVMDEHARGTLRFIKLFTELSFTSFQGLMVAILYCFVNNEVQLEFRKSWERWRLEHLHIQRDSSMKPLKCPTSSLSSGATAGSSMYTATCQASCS

As for `CCn1cncc1Cn1c(CN2CC[C@]3(c4cccnc4OCc4ccc(C#N)cc4F)C[C@@H]3C2)nc2ccc(C(=O)O)cc21` (single isomer, unassigned) [Compound 166, 2-((6-(2-((4-cyano-2-fluorobenzyl)oxy)pyridin-3-yl)-3-azabicyclo[4.1.0]heptan-3-yl)methyl)-1-((1-ethyl-1H-imidazol-5-yl)methyl)-1H-benzo[d]imidazole-6-carboxylic acid], the EC50 came out at 59.4 nM.

(Values after patent US20230322744A1, “COMPOUNDS AS GLP-1R AGONISTS” (Terns Pharmaceuticals, Inc., priority 2020, published 2023).)
